# In patent US20210380525A1, “COMPOSITIONS AND METHODS FOR THE TREATMENT OF PARKINSON'S DISEASE” (Cellix Bio Private Limited, priority 2018, published 2021):
# Legend:
# [1] = Clinical signs of toxicity in the pharmacokinetic study; format: in vivo; conditions: single s.c. dose 50, 150 and 300 mg/Kg, male SD rats
# Description: (§1) The objective of this study was to determine the pharmacokinetics of L-Dopa after a single subcutaneous administration of CLX-SYN-G107B-C01 at the doses of 50, 150 and 300 mg/Kg, in male Sprague-Dawley (SD) rats.
# (§2) Three groups of 5-male rats in each (age 8-10 weeks; body weight range 198-226 g) were assigned to receive CLX-SYN-G107B-C01 at the doses of 50, 150 and 300 mg/kg, by subcutaneous route. CLX-SYN-G107B-C01 was formulated in Propylene glycol and PEG-300 for subcutaneous administration. The dose volume was 2 ml/kg.
# [2] = Pharmacokinetic study: plasma L-Dopa after single subcutaneous administration of CLX-SYN-G107B-C01; format: in vivo, Sprague-Dawley rats; conditions: lowest tested dose of 50 mg/kg s.c. compared to other doses, SD rats
# Description: as §1, §2
# The blood samples (0.2 mL/time point) from the animals were collected at 0 (pre-dose), 0.083, 0.25, 0.5, 1, 2, 4, 8, 10, 24, 48 and 72 h post dosing after subcutaneous administration. The plasma samples were analyzed for L-Dopa using a fit-for-purpose LC-MS/MS method.
smiles,measurement,setting,value
"CCCCCCC(=O)N[C@@H](Cc1ccc(O)c(O)c1)C(=O)OCC(COC(=O)CCCCCC)OC(=O)CCCCCC (stereo partly drawn) [CLX-SYN-G107B-C01, 3-(((S)-3-(3,4-dihydroxyphenyl)-2-heptanamidopropanoyl)oxy)propane-1,2-diyl diheptanoate]",Clinical signs of toxicity,[1],No clinical signs of toxicity were observed
same,Bioavailability (comparison of doses),[2],enhanced bioavailability with low dose
